The nature of the data set: In-vivo PET imaging in rhesus monkey to determine brain penetrance. Particulars: healthy rhesus monkey. The source says: The non-human primate was kept immobilized in the extended imaging bed inside the gantry of the PET imaging system (MicroPET® P4, Siemens Preclinical Solutions, Knoxville, TN). The scanning region was a single bed position from approximately the top of skull and extending through the lower neck area, to fit into the 7.6 cm MicroPET system axial FOV. A 10-minute transmission scan was acquired using a ^57Co point source for the purpose of attenuation correction of the subsequent emission image. Approximately 0.96 mCi of [^11C]-(R)-4-(2-acryloyl-1,2,3,4-tetrahydroisoquinolin-5-yl)-5-fluoro-2,3-dimethyl-1H-indole-7-carboxamide was injected IV and a 60-minute dynamic PET image was acquired. PET images were reconstructed with a filtered back projection (FBP) or MAP algorithm with attenuation correction. Using the AMIDE software package, an ROI encompassing the whole brain was manually drawn in the PET images. Mean standardized uptake value (SUV), which is normalized with body weight (kg) and injected dose (mCi), was calculated and plotted as a function of time to obtain a TAC. […] In healthy rhesus monkey, as in WT mice. there is very low brain expression of BTK in a non-diseased state.

As to `C=C[11C](=O)N1CCc2c(cccc2-c2c(F)cc(C(N)=O)c3[nH]c(C)c(C)c23)C1` [[^11C]-(R)-4-(2-acryloyl-1,2,3,4-tetrahydroisoquinolin-5-yl)-5-fluoro-2,3-dimethyl-1H-indole-7-carboxamide], the “brain time-activity curve (TAC) behaviour” value is “rapid brain penetration followed by washout”. Besides, the brain penetrance result (baseline (PET ligand only), IV, 0-60 minutes) is recorded as “confirmed brain penetrance”. Moreover, the brain uptake pattern result (summed images 0-60 minutes post injection (FIG. 7)) was “Diffuse uptake was observed throughout the brain”.

(Values after patent publication US20240383871A1, “COMPOUND USEFUL FOR PET-IMAGING OF BRUTON’S TYROSINE KINASE” (Bristol-Myers Squibb Company, priority 2021, published 2024).)
